Results from patent US20240024385A1, “PROBIOTIC STRAIN FOR REDUCING SERUM URIC ACID, COMPOSITION AND USE THEREOF” (Ningbo Beiyijia Biotechnology Co., Ltd., priority 2022, published 2024).

What was measured:
serum uric acid = test: Combined use of composition 6 with a uric acid-reducing drug, serum uric acid in hyperuricemia patients with tophi; type: in vivo, human; parameters: Serum uric acid: unit not given here; settings: for Serum uric acid: hyperuricemia patients with tophi, febuxostat 20 mg/day or benzbromarone 25 mg/day; for Effect on increase of serum uric acid level caused by dissolution of urate crystals by composition 6: small dose combined with composition 6 (febuxostat 20 mg/day or benzbromarone 25 mg/day)
Text: The process of dissolving urate crystals and tophi will result in a temporary increase of the serum uric acid level, which may lead to acute gout inflammation. In order to relieve the increase of the serum uric acid level caused by the dissolution of urate crystals or tophi, the effect of combined use of the composition 6 with a small-dose uric acid-reducing drug on the inhibition of the rise of the serum uric acid level was investigated.
Fifty hyperuricemia patients with tophi were recruited as volunteers, divided into 5 groups, and separately administered with the composition 6 and the uric acid-reducing drug (febuxostat 20 mg/day or benzbromarone 25 mg/day) alone or in combination. The change of serum uric acid during the intervention period was observed.

[1] = 20° C.; cited from earlier work

Row | Structure (SMILES) | Serum uric acid (serum uric acid; Day 0 (before intervention)) | Serum uric acid (serum uric acid; Day 30) | Serum uric acid (serum uric acid; Day 60) | Serum uric acid (serum uric acid; Day 90) | Effect on increase of serum uric acid level caused by dissolution of urate crystals by composition 6 (serum uric acid) | Solubility in water [1]
1 | CCc1oc2ccccc2c1C(=O)c1cc(Br)c(O)c(Br)c1 [benzbromarone] | 640 ± 78 | 593 ± 71 | 463 ± 53 | 405 ± 37 | can inhibit the increase of the serum uric acid level | –
2 | Nc1nc2c(ncn2[C@@H]2O[C@H](CO)[C@@H](O)[C@H]2O)c(=O)[nH]1 [guanosine] | – | – | – | – | – | 77.6 mg/100 mL
3 | Nc1nc2c(ncn2[C@@H]2O[C@H](COP(=O)(O)O)[C@@H](O)[C@H]2O)c(=O)[nH]1 [guanosine monophosphate] | – | – | – | – | – | 20 g/100 mL
4 | Nc1nc2nc[nH]c2c(=O)[nH]1 [guanine] | – | – | – | – | – | 0.17 mg/100 mL
5 | Cc1nc(-c2ccc(OCC(C)C)c(C#N)c2)sc1C(=O)O [febuxostat] | 631 ± 51 | 571 ± 52 | 478 ± 57 | 416 ± 59 | can inhibit the increase of the serum uric acid level | –
